PubChem BioAssay (NCI)
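Compound exposure: 48 hours, 5 concentrations, 96-well plates. Here, GI50 denotes the concentration required for 50% inhibition of growth. TGI: total growth inhibition.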

Assays:
Test in all cases: DTP human tumour cell line panel, 48 h
[1] = tested on: HS 578T breast
[2] = tested on: SW-620 colon
[3] = tested on: HT29 colon
[4] = tested on: SNB-75 CNS
[5] = tested on: CCRF-CEM leukemia
[6] = tested on: RXF 393 renal
[7] = tested on: ACHN renal
[8] = tested on: TK-10 renal
[9] = tested on: SK-MEL-2 melanoma
[10] = tested on: NCI-H522 lung
[11] = tested on: SR leukemia
[12] = tested on: OVCAR-4 ovarian
[13] = tested on: SK-MEL-28 melanoma
[14] = tested on: U251 CNS
[15] = tested on: MDA-MB-435
[16] = tested on: SF-268 CNS
[17] = tested on: EKVX NSCLC
[18] = tested on: K-562 leukemia
[19] = tested on: M14 melanoma
[20] = tested on: 786-0 renal
[21] = tested on: MCF7 breast
[22] = tested on: HOP-62 NSCLC
[23] = tested on: MDA-MB-231 breast
[24] = tested on: MALME-3M melanoma
[25] = tested on: HCC-2998 colon
[26] = tested on: LOX IMVI melanoma
[27] = tested on: NCI-H226 lung
[28] = tested on: UACC-257 melanoma
[29] = tested on: SK-MEL-5 melanoma
[30] = tested on: SF-539 CNS
[31] = tested on: UACC-62 melanoma
[32] = tested on: MOLT-4 leukemia
[33] = tested on: SF-295 CNS
[34] = tested on: COLO 205 colon
[35] = tested on: CAKI-1 renal
[36] = tested on: PC-3 prostate
[37] = tested on: BT-549 breast
[38] = tested on: A498 renal
[39] = tested on: HCT-116 colon
[40] = tested on: NCI/ADR-RES ovarian
[41] = tested on: SN12C renal
[42] = tested on: OVCAR-5 ovarian
[43] = tested on: HCT-15 colon
[44] = tested on: OVCAR-8 ovarian
[45] = tested on: DU-145 prostate
[46] = tested on: UO-31 renal
[47] = tested on: IGROV1 ovarian
[48] = tested on: SNB-19 CNS
[49] = tested on: NCI-H460 lung
[50] = tested on: NCI-H23 lung
[51] = tested on: RPMI-8226 leukemia
[52] = tested on: KM12 colon
[53] = tested on: OVCAR-3 ovarian
[54] = tested on: SK-OV-3 ovarian
[55] = tested on: A549 NSCLC
[56] = tested on: HL-60(TB) leukemia

`O=C(c1ccco1)c1nc2ccc(Cl)cc2[n+]([O-])c1C(F)(F)F` was tested, and the GI50 [1] was over 100 µM, the TGI [1] was over 100 µM and the GI50 [2] was over 100 µM. For the same compound, the TGI [2] was over 100 µM, the GI50 [3] was over 100 µM and the TGI [3] was over 100 µM. For the same compound, the GI50 [4] was 52.8 µM, the TGI [4] was over 100 µM and the GI50 [5] was 39.4 µM. The TGI [5] was over 100 µM, the GI50 [6] was 27.4 µM and the TGI [6] was 62 µM. The GI50 [7] was over 100 µM, the TGI [7] was over 100 µM and the GI50 [8] was 62.7 µM. It also gave a TGI [8] of over 100 µM, a GI50 [9] of over 100 µM and a TGI [9] of over 100 µM. For the same compound, the GI50 [10] was over 100 µM, the TGI [10] was over 100 µM and the GI50 [11] was 66.3 µM. It also gave a TGI [11] of over 100 µM, a GI50 [12] of over 100 µM and a TGI [12] of over 100 µM. The GI50 [13] was over 100 µM, the TGI [13] was over 100 µM and the GI50 [14] was 69.8 µM. The TGI [14] was over 100 µM, the GI50 [15] was over 100 µM and the TGI [15] was over 100 µM. For the same compound, the GI50 [16] was 50.1 µM, the TGI [16] was over 100 µM and the GI50 [17] was 96.2 µM. The TGI [17] was over 100 µM, the GI50 [18] was over 100 µM and the TGI [18] was over 100 µM. It also gave a GI50 [19] of over 100 µM, a TGI [19] of over 100 µM and a GI50 [20] of over 100 µM. For the same compound, the TGI [20] was over 100 µM, the GI50 [21] was 30.4 µM and the TGI [21] was over 100 µM. For the same compound, the GI50 [22] was 91.3 µM, the TGI [22] was over 100 µM and the GI50 [23] was 59.1 µM. For the same compound, the TGI [23] was over 100 µM, the GI50 [24] was over 100 µM and the TGI [24] was over 100 µM. The GI50 [25] was 88.4 µM, the TGI [25] was over 100 µM and the GI50 [26] was over 100 µM. The TGI [26] was over 100 µM, the GI50 [27] was over 100 µM and the TGI [27] was over 100 µM. For the same compound, the GI50 [28] was over 100 µM, the TGI [28] was over 100 µM and the GI50 [29] was 90.3 µM. It also gave a TGI [29] of over 100 µM, a GI50 [30] of over 100 µM and a TGI [30] of over 100 µM. It also gave a GI50 [31] of over 100 µM, a TGI [31] of over 100 µM and a GI50 [32] of over 100 µM. The TGI [32] was over 100 µM, the GI50 [33] was over 100 µM and the TGI [33] was over 100 µM. It also gave a GI50 [34] of over 100 µM, a TGI [34] of over 100 µM and a GI50 [35] of 95.6 µM. The TGI [35] was over 100 µM, the GI50 [36] was 37.1 µM and the TGI [36] was over 100 µM. The GI50 [37] was over 100 µM, the TGI [37] was over 100 µM and the GI50 [38] was over 100 µM. The TGI [38] was over 100 µM, the GI50 [39] was over 100 µM and the TGI [39] was over 100 µM. The GI50 [40] was over 100 µM, the TGI [40] was over 100 µM and the GI50 [41] was over 100 µM. It also gave a TGI [41] of over 100 µM, a GI50 [42] of over 100 µM and a TGI [42] of over 100 µM. It also gave a GI50 [43] of over 100 µM, a TGI [43] of over 100 µM and a GI50 [44] of 64.9 µM. For the same compound, the TGI [44] was over 100 µM, the GI50 [45] was over 100 µM and the TGI [45] was over 100 µM. For the same compound, the GI50 [46] was over 100 µM, the TGI [46] was over 100 µM and the GI50 [47] was over 100 µM. For the same compound, the TGI [47] was over 100 µM, the GI50 [48] was 72.6 µM and the TGI [48] was over 100 µM. The GI50 [49] was 91.4 µM, the TGI [49] was over 100 µM and the GI50 [50] was over 100 µM. The TGI [50] was over 100 µM, the GI50 [51] was 31.1 µM and the TGI [51] was over 100 µM. For the same compound, the GI50 [52] was over 100 µM, the TGI [52] was over 100 µM and the GI50 [53] was over 100 µM. It also gave a TGI [53] of over 100 µM, a GI50 [54] of over 100 µM and a TGI [54] of over 100 µM. The GI50 [55] was over 100 µM, the TGI [55] was over 100 µM and the GI50 [56] was over 100 µM. It also gave a TGI [56] of over 100 µM.
`COC1=CC(=O)N(C(=O)C2CSC(C(CO)NC(=O)c3csc(/C=N/O)n3)=N2)C1` (stereo unspecified) showed a TGI [1] of over 100 µM, a TGI [2] of over 100 µM and a TGI [3] of over 100 µM. For the same compound, the TGI [4] was 91 µM, the TGI [5] was over 100 µM and the TGI [7] was over 100 µM. For the same compound, the TGI [8] was over 100 µM, the TGI [9] was over 100 µM and the TGI [11] was over 100 µM. For the same compound, the TGI [13] was over 100 µM, the TGI [15] was over 100 µM and the TGI [16] was over 100 µM. The TGI [17] was over 100 µM, the TGI [18] was over 100 µM and the TGI [19] was over 100 µM. For the same compound, the TGI [20] was over 100 µM, the TGI [21] was over 100 µM and the TGI [22] was over 100 µM. The TGI [23] was over 100 µM, the TGI [24] was over 100 µM and the TGI [26] was over 100 µM. It also gave a TGI [27] of over 100 µM, a TGI [28] of over 100 µM and a TGI [29] of over 100 µM. The TGI [30] was over 100 µM, the TGI [31] was over 100 µM and the TGI [32] was over 100 µM. For the same compound, the TGI [33] was over 100 µM, the TGI [34] was over 100 µM and the TGI [35] was over 100 µM. The TGI [36] was over 100 µM, the TGI [37] was over 100 µM and the TGI [38] was over 100 µM. It also gave a TGI [39] of over 100 µM, a TGI [40] of over 100 µM and a TGI [41] of over 100 µM. The TGI [42] was over 100 µM, the TGI [43] was over 100 µM and the TGI [44] was over 100 µM. It also gave a TGI [45] of over 100 µM, a TGI [47] of over 100 µM and a TGI [48] of over 100 µM. The TGI [49] was over 100 µM, the TGI [50] was over 100 µM and the TGI [51] was over 100 µM. It also gave a TGI [52] of over 100 µM, a TGI [53] of over 100 µM and a TGI [54] of over 100 µM. For the same compound, the TGI [56] was over 100 µM.
